Data taken from patent publication US20260015592A1, “NEDDYLATION-ACTIVATING ENZYME INHIBITORS AS VIRAL SENSITIZERS AND USES THEREOF” (priority 2022, published 2026).
Residues, ends and D or L forms follow the SMILES beside them. *: point of attachment. Cbz = O=C(OCc1ccccc1)*; CH2F = FC*

How the values were obtained:
786-0 cells [1] = test system: 786-0 cells
VSVΔ51 [2] = type: cell-based, vesicular stomatitis virus
786-0 cells [3] = assay: cells; details: Homo sapiens, 786-0, read-out: cell viability
STAT1 and STAT2 = type: cell-based, Human
786-0 cells [4] = type: cell-based, Human
VSVΔ51 [5] = type: cell-based, vesicular stomatitis virus; remark: listed apart in the source
VSVΔ51 [6] = type: cell-based, vesicular stomatitis virus; remark: listed apart in the source
NF-κB = type: cell-based, Human
786-0 cells [7] = type: cell-based, Human; remark: listed apart in the source
STAT1 = type: cell-based, Human
MG-1 = type: cell-based, Maraba virus
VSVΔ51 [8] = type: cell-based, vesicular stomatitis virus; remark: listed apart in the source
VSVΔ51 [9] = type: cell-based, vesicular stomatitis virus; remark: listed apart in the source
VSVΔ51 [10] = type: cell-based, vesicular stomatitis virus; remark: listed apart in the source
CT26WT colon carcinoma = details: mouse, in vivo
[11] = test system: primary murine hepatocytes
[12] = test system: various human and murine cell lines
AAV2-Fluc = AAV2-Fluc production in HEK293 cells, functional titre assay; type: cell-based, adeno-associated virus (AAV)
4T1 mammary carcinoma = details: mouse, in vivo
VSV-wild type-FLuc = type: cell-based, vesicular stomatitis virus
IFN-β = type: cell-based, Human

CCOc1cccc(F)c1C#Cc1cn([C@@H]2O[C@H](CNS(N)(=O)=O)[C@@H](O)[C@H]2O)c2ncnc(N)c12 [TAS4464]
VSVΔ51 oncolysis (cell viability, Alamar blue) (786-0 cells [1]): enhanced oncolysis
VSVΔ51 infectivity (fluorescent signal, plaque assay) (VSVΔ51 [2]): increased VSVΔ51 infectivity

NS(=O)(=O)OC[C@@H]1C[C@H](n2ccc3c(N[C@H]4CCc5ccccc54)ncnc32)C[C@@H]1O [pevonedistat, ((1S,2S,4S)-4-(4-(((S)-2,3-dihydro-1H-inden-1-yl)amino)-7H-pyrrolo[2,3-d]pyrimidin-7-yl)-2-hydroxycyclopentyl) methyl sulfamate]
viability at 1 µM (786-0 cells [3]): 33%
downstream RNA levels of IFN-1 effectors (STAT1 and STAT2): decreased
total protein levels of STAT1 and STAT2 (STAT1 and STAT2): decreased
caspase-8 activity (786-0 cells [4]): remained significantly increased
cleaved caspase-3 levels (786-0 cells [4]): markedly higher levels
full-length poly (ADP-ribose) polymerase (PARP) levels (786-0 cells [4]): decreased levels
proportion of Annexin V-positive cells (786-0 cells [4]): significantly greater proportion
time of peak caspase-8 activity (786-0 cells [4]): 36 hpi
VSVΔ51-GFP viral titer (VSVΔ51 [5]): increases
VSVΔ51 viral titer (VSVΔ51 [5]): significantly increased
cell killing and apoptosis activation (786-0 cells [1]): increased cell killing and apoptosis activation
lowest concentration with significant viability differences with vs without VSVΔ51 (786-0 cells [1]): ≥ 120 nM
viral titer of VSVΔ51 (VSVΔ51 [6]): able to increase the viral titer
VSVΔ51 growth (relative titer), multi-step growth curve (VSVΔ51 [2]): robustly enhance
VSVΔ51 infectivity (fluorescent signal, plaque assay) (VSVΔ51 [2]): increased VSVΔ51 infectivity
average plaque diameter (plaque expansion assay) (VSVΔ51 [2]): significantly increased
time of administration capable of increasing VSVΔ51 viral titer (VSVΔ51 [2]): 24 hours prior until 4 hours after infection
viral GFP transgene expression (VSVΔ51 [2]): marked increase
NF-κB protein expression in nuclear fractions (NF-κB): markedly less NF-κB protein expression
transcription of pro-inflammatory cytokines controlled by NF-κB signaling including IFN-β (NF-κB): repressed transcription
STAT1 transcription factor activity predicted by TFactS (786-0 cells [7]): inhibited
downregulation of promyelocytic leukemia protein (PML) gene (786-0 cells [7]): approximately 79 fold
expression of genes related to the IFN-1 GO term (786-0 cells [7]): significantly downregulated
genes significantly downregulated (786-0 cells [7]): 3,326 genes
genes significantly upregulated (P<0.05, log 2-fold change >2) (786-0 cells [7]): 3,038 genes
phosphorylation levels of STAT1 and STAT2 in response to IFN-β treatment (STAT1): unable to markedly influence
protein availability of ISGF3 components including STAT1 (STAT1): global reduction in protein availability
transcription of STAT1 and downstream ISGs (IRF7, MX2, IFTM1) (STAT1): significantly decrease
transcription of STAT1 in the presence of exogenous IFN (STAT1): inhibiting the transcription of STAT1
production of MG-1 (MG-1): facilitate production
increase in VSVΔ51 viral titer (VSVΔ51 [8]): over 30 fold
VSVΔ51 infection (VSVΔ51 [9]): able to increase VSVΔ51 infection
increase in viral titer (VSVΔ51 [9]): over 15 fold
viral replication (VSVΔ51 [10]): does not increase viral replication
overall survival after CT26WT re-challenge (CT26WT colon carcinoma): improved overall survival
tumor volume progression after CT26WT re-challenge (CT26WT colon carcinoma): suppress tumor volume progression more effectively
tumor volumes post-treatment (CT26WT colon carcinoma): significantly smaller
viability, compound + VSVΔ51 vs compound only [11]: no significant viability differences
cytotoxicity in combination with VSVΔ51 [12]: increased cytotoxicity
optimal concentration for AAV2-Fluc enhancement (AAV2-Fluc; HEK293, functional titre assay): 200 to 400 nM
enhancement of AAV2-Fluc viral signal (AAV2-Fluc; HEK293, treated 60 min post transfection, 72 h, over a range of concentrations): up to 2.6 fold
survival (4T1 mammary carcinoma): significantly prolonged survival
tumor volumes post-treatment (4T1 mammary carcinoma): significantly smaller
production of wild-type VSV (VSV-wild type-FLuc): facilitate production

COC(=O)C[C@H](NC(=O)[C@H](C)NC(=O)[C@@H](NC(=O)OCc1ccccc1)C(C)C)C(=O)CF [Z-VAD-FMK] (Cbz-Val-Ala-Asp(OMe)-CH2F)
cell viability (786-0 cells [1]): 71%

Nc1ccc(SCC(=O)Nc2ccc3nc(NC(=O)c4ccc(C(F)(F)F)cc4)sc3c2)cc1 [ZM223, N-(6-(2-((4-aminophenyl)thio)acetamido)benzo[d]thiazol-2-yl)-4-(trifluoromethyl) benzamide]
VSVΔ51 infectivity (fluorescent signal, plaque assay) (VSVΔ51 [2]): some viral sensitizing activity
IFN-β secretion (IFN-β): unable to do the same
